Structures can show the parent of a compound that is named as a salt.
Experiments:
[1] = target: T1, human 5-HT2A receptor (Homo sapiens, UniProt P28223); experiment: Test A: binding to human recombinant 5-HT2A serotonin receptor, [3H]-ketanserin displacement; conditions: membranes from CHO-K1 cells expressing human 5-HT2A; 0.5 nM [3H]-ketanserin; 1 hour at 25° C.; read-out: 5-HT2A (pKi) (converted)
T1 construct: expressed in transfected cells
Method: In particular, binding to the human 5-HT2A serotonin receptor was performed using, as starting material, a preparation of membranes from stable recombinant CHO-K1 cell line expressing the human 5-HT2A receptor.
The non-specific binding was measured in the presence of 1 μM mianserin. The assay was conducted in Tris-HCl 50 mM buffer (pH 7.4 at 37° C.), with incubation for 1 hour at 25° C. The test compounds were dissolved in DMSO, then diluted in buffer (final DMSO concentration 0.01%) and plated on 96-well plates. The compounds were tested in duplicate in an 8-points concentration response curve (in a Log scale ranging from 10^−12 to 10^−5 M).
After incubation, the membranes were filtered on glass-fibre filters (GF/B) (Unifilter, Packard) treated with 0.5% polyethyleneimine. Then the filters were washed with buffer solution and oven-dried for 30 minutes at 45° C. The scintillation liquid was added to each well, and at least 16 hours later the radioactivity was measured for 1 minute using a TopCount (Packard).
The IC50 values for each compound were calculated using non-linear regression analysis (GraphPad PRISM software) and the inhibition constants Ki were determined using the equation described by Cheng Y. and Prussof W. H. (1973) “Relationship between the inhibition constant (Ki) and the concentration of inhibitor which causes 50 percent inhibition (I50) of an enzyme reaction.” Biochem. Pharmacol. 22: 3099-3108.

[2] = system: serotoninergic system; experiment: Test C: 5-HTP-induced head twitch test in mice; type: in vivo, mouse; conditions: male CD-1 mice; 5 mg/kg intraperitoneally; 5-HTP 300 mg/kg i.p. 30 min later; counted 24 to 26 minutes after 5-HTP
Method: The interactions of the compounds of formula (I) according to the present invention with the serotoninergic system was tested following the “head twitch” model in the mouse, according to the standard methodology described by Sztanke K., Fidecka S., Kedzierska E., Karczmarzyk Z., Pihlaja K., Matosiuk D. (2005) in “Antionociceptive activity of new imidazole carbonyl derivatives. Part 4. Synthesis and pharmacological activity of 8-aryl-3,4-dioxo-2H,8H-6,7-dihydrimidazo[2,1c][1,2,4]triazine.” Eur. J. Med. Chem. 40: 127-134, and in Corne S. J., Pickering R. W., Warner B. T. (1963) “A method for assessing the effects of drugs on the central actions of 5-hydroxytryptamine.” Br. J. Pharmacol. Chemother. 20: 106-120.
The “head twitches” are a characteristic shaking of the head induced in the animals by the increase in central levels of serotonin.
Male CD-1 mice weighing 25-30 g were used for the “head twitch” test. Molecules were suspended in a 0.5% methylcellulose aqueous solution (MTC) and the animals were treated intraperitoneally with the test compounds at the dose of 5 mg/kg (10 ml/kg body weight). The control animals received the vehicle alone (MTC) by the same route. Head twitches, considered as a specific behavioural model for the activation of serotoninergic neurons, were induced by an intraperitoneal administration of 5-hydroxytryptophan (5-HTP), a precursor of serotonin (5-HT), dissolved in a 0.5% MTC solution and given at 300 mg/kg 30 min following drug administration.
The number of head twitches, which constitutes the parameter for assessment of the serotoninergic response, was measured in the interval from 24 to 26 minutes after administration of 5-HTP.

[3] = target: T2, human 5-HT2C receptor (Homo sapiens, UniProt P28335); experiment: Test B: binding to human 5-HT2C serotonin receptor, [3H]-mesulergine displacement; conditions: membranes from CHO-K1 cells expressing human 5-HT2C; 1 nM [3H]-mesulergine; 1 hour at 25° C.; read-out: (h)5-HT2c (pKi) (converted)
T2 construct: expressed in transfected cells
T2 sequence (P28335 33-458): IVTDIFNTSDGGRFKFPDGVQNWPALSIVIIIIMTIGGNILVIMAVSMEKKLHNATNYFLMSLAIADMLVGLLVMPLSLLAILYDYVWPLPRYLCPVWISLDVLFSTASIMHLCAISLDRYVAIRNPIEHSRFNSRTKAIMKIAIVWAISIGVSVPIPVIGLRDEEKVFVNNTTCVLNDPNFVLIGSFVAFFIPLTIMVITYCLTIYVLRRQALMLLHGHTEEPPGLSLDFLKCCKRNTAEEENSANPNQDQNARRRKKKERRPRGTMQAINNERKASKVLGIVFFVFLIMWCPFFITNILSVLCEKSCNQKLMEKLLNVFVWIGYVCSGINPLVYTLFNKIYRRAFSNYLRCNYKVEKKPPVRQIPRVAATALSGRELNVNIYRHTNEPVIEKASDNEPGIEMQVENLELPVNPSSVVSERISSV
Method: 69: 1449-1458. In particular, binding to the human serotonin 5-HT2C receptor was performed using, as starting material, a preparation of membranes from stable recombinant CHO-K1 cell line expressing the human 5-HT2C receptor. […] The non-specific binding was measured in the presence of 1 μM mianserin. The assay was conducted in Tris-HCl 50 mM buffer (pH 7.4 at 37° C.), 0.1% Ascorbic Acid, 10 μM Pargyline, with incubation for 1 hour at 25° C. The test compounds were dissolved in DMSO, then diluted in buffer (final DMSO concentration 0.01%) and plated on 96-well plates The compounds were tested in duplicate in an 8-points concentration response curve (in a Log scale ranging from 10^−12 to 10^−5 M). SB 242084 was used as reference compound. […] Then the filters were washed with buffer solution and oven-dried for 30 minutes at 45° C. The scintillation liquid was added to each well, and at least 16 hours later the radioactivity was measured for 1 minute using a TopCount (Packard). The IC50 values for each compound were calculated using non-linear regression analysis (GraphPad PRISM software) and the inhibition constants Ki were determined using the equation described by Cheng Y. and Prussof W. H. […] Pharmacol. 22: 3099-3108.

T1 sequence (P28223 whole entry): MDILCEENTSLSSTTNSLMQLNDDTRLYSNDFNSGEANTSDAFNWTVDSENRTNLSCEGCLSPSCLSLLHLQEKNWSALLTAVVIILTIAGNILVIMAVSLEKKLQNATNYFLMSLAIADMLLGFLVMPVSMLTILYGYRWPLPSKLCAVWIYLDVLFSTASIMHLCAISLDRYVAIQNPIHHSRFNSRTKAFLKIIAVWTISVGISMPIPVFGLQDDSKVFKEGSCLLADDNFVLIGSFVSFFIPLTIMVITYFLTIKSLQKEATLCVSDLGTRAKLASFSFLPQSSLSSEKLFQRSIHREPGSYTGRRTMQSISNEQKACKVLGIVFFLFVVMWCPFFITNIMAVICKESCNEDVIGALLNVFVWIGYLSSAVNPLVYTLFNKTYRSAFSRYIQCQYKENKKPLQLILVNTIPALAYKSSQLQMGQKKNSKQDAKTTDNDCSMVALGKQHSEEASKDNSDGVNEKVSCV

Row | SMILES | Ki [1] [µM] | % INHIBITION (number of head twitches vs vehicle treated group) [2] [%] | Ki [3] [µM]
1 | Cl.O=C1c2c3ccccc3nn2CCN1CC1CCN(CCc2ccc(F)cc2)CC1 [Compound 1, 2-({1-[2-(4-fluorophenyl)ethyl]piperidin-4-yl}methyl)-3,4-dihydropyrazino[1,2-b]indazol-1(2H)-one hydrochloride] | 0.0195 | 50 | 1.7
2 | O=C1c2c3ccccc3nn2CCCN1CC1CCCN(CCc2ccccc2F)C1 (stereo not shown) [Compound 13, 2-({1-[2-(2-fluorophenyl)ethyl]piperidin-3-yl}methyl)-2,3,4,5-tetrahydro-1H-[1,4]diazepino[1,2-b]indazol-1-one dihydrochloride] | 0.257 | – | –
3 | Cl.O=C1c2c3ccccc3nn2CCCN1CC1CCN(CCc2ccc(F)cc2)CC1 [Compound 16, 2-({1-[2-(4-fluorophenyl)ethyl]piperidin-4-yl}methyl)-2,3,4,5-tetrahydro-1H-[1,4]diazepino[1,2-b]indazol-1-one hydrochloride] | 0.00724 | 56 | > 10
4 | O=C1c2c3c(nn2CCN1CC1CCN(CCc2ccc(F)cc2)CC1)CCCC3 [Compound 17, 2-({1-[2-(4-fluorophenyl)ethyl]piperidin-4-yl}methyl)-3,4,7,8,9,10-esahydropyrazino[1,2-b]indazol-1(2H)-one hydrochloride] | 0.0295 | 32 | 7.41
5 | O=C1c2c3ccccc3nn2CCCN1CCCN1CCC(c2ccccc2)CC1 [Compound 31, 2-[3-(4-phenylpiperidin-1-yl)propyl]-2,3,4,5-tetrahydro-1H-[1,4]diazepino[1,2-b]indazol-1-one hydrochloride] | 0.0457 | – | > 10
6 | Cc1cc2c(cc1Cl)N(C(=O)Nc1ccc(Oc3cccnc3C)nc1)CC2 [SB 242084, reference compound] | – | – | 0.000468

Continued, in another order:

Row | Ki [1] [µM] | SMILES | % INHIBITION (number of head twitches vs vehicle treated group) [2] [%] | Ki [3] [µM]
7 | 1.15 | O=C1c2c3ccccc3nn2CCN1CC1CCCN(CCc2ccc(F)cc2)C1 (stereo not shown) [Compound 2, 2-({1-[2-(4-fluorophenyl)ethyl]piperidin-3-yl}methyl)-3,4-dihydropyrazino[1,2-b]indazol-1(2H)-one] | – | –
8 | 0.692 | O=C1c2c3ccccc3nn2CCN1CC1CCCN(CCc2ccccc2F)C1 (stereo not shown) [Compound 5, 2-({1-[2-(2-fluorophenyl)ethyl]piperidin-3-yl}methyl)-3,4-dihydropyrazino[1,2-b]indazol-1(2H)-one hydrochloride] | – | –
9 | 0.00182 | O=C1c2c3ccccc3nn2CCN1CC1CCN(CCc2ccccc2F)CC1 [Compound 8, 2-({1-[2-(2-fluorophenyl)ethyl]piperidin-4-yl}methyl)-3,4-dihydropyrazino[1,2-b]indazol-1(2H)-one] | 70 | –
10 | 0.275 | O=C1c2c3ccccc3nn2CCCN1CC1CCCN(CCc2ccc(F)cc2)C1 (stereo not shown) [Compound 10, 2-({1-[2-(4-fluorophenyl)ethyl]piperidin-3-yl}methyl)-2,3,4,5-tetrahydro-1H-[1,4]diazepino[1,2-b]indazol-1-one dihydrochloride] | – | –
11 | 0.0166 | O=C1c2c3ccccc3nn2CCN1CC1CCN(CCc2ccccc2)CC1 [Compound 20, 2-[(1-phenethylpiperidin-4-yl)methyl]-3,4-dihydropyrazino[1,2-b]indazol-1(2H)-one hydrochloride] | – | –
12 | 0.0209 | O=C1c2c3ccccc3nn2CCCN1CC1CCN(CCc2ccccc2)CC1 [Compound 22, 2-[(1-phenethylpiperidin-4-yl)methyl]-2,3,4,5-tetrahydro-1H-[1,4]diazepino[1,2-b]indazol-1-one] | – | –
13 | 0.0741 | O=C1c2c3ccccc3nn2CCN1CCCN1CCC(c2ccccc2)CC1 [Compound 28, 2-[3-(4-phenylpiperidin-1-yl)propyl]-3,4-dihydropyrazino[1,2-b]indazol-1(2H)-one hydrochloride] | – | > 10

— patent US9655906B2, “Tricyclic indazole compound, method of preparation and pharmaceutical composition containing it” (AZIENDE CHIMICHE RIUNITE ANGELINI FRANCESCO A.C.R.A.F S.p.A., priority 2010, dated 2017)
